Where no end group is shown, it is not given here.
Tests used:
Assay type in all cases: cell-based, human
[1] = system: HLA-A2.1 restricted melanoma specific CTL lines (VMM5, VMM6, DM169-13, DM204-13, LD1); test: Chromium release assay, peptide-preincubated T2 cells, panel of HLA-A2.1 restricted melanoma specific CTL lines from different patients; conditions: for activity in reconstituting recognition by CTL lines from 3 additional patients: at equal or higher concentrations than 946 (0.1-1 nM)
Method: Cell-mediated killing was determined in vitro using a 4-h chromium release assay. 51Cr-labeled target cells were plated at 2×10^3 cells/well in triplicate on 96-well V-bottom plates (Costar, Cambridge, Mass.) with varying numbers of effector cells in a final volume of 250 microl. Wells containing either culture medium and target cells only or 1 M HCl and target cells served as background 51Cr release controls and total release controls, respectively. The plates were centrifuged at 100×g for 3 min and incubated at 37° C. in 5% CO2 for 4 h. The plates were again centrifuged, and 0.20 ml of medium from each well was removed for counting in a gamma counter. The cytotoxic index was calculated as: [formula] […] Effector cells were added in 100 microl assay medium to give an E:T ratio of 10:1, and were incubated at 37° C. The remainder of the assay is performed as in standard chromium release assays described above. Wells containing peptide and target cells but no CTL were used as controls to rule out toxicity of the peptides themselves. […] To determine whether peptide 946 was a generally relevant epitope for HLA-A2.1 restricted melanoma specific CTL, lines from 3 additional patients were tested. CTL lines VMM5 and VMM6 were generated by stimulation with autologous tumor. VMM5 CTL were maintained on allogeneic A2.1^+ melanoma DM6 after specificity was obtained, C. L. Slingluff Jr. et al., J. Immunol. 150, 2955 (1993). DM169-13 and DM204-13 CTL were generated by stimulation with allogeneic A2.1^+ melanoma DM13, N. J. Crowley et al., J. Immunol. 146, 1692 (1991), then maintained with DM6. LD1 CTL were stimulated on a rotating schedule of stimulating logeneic A2.1^+ melanomas DM6, DM13, and DM93. DM93 is an HLA-A2.1^+ melanoma used as a positive control. […] T2 cells were preincubated with the peptides whose (M+H)^+ values are indicated in the legend, FIG. 12. […] All other peptides were used at a concentration of 10 nM except 250 nM for DM169 and 0.1 nM for LD1. Asterisks (*) mark peptides not evaluated. The sequences of the peptides 864 (Seq. ID No. 88), 946 (Seq. ID No. 39), 1046 (Seq. ID No. 89) are described in the text. Peptide 1030 has the sequence […] (SEQ ID NO:90), (related to peptide from tyrosinase. molecule). […] An additional peptide Try […] (SEQ ID NO 96), which originates from tyrosinase and had been identified by Boon and colleagues as an HLA-A2.1 restricted melanoma specific T cell epitope, was also evaluated. None of 4 CTL lines recognized cells incubated with this peptide.

[2] = system: melanoma specific CTL VMM5; test: Reconstitution of melanoma-specific CTL epitope on peptide-pulsed 51Cr-labelled T2 cells, chromium release assay, VMM5 CTL; conditions: for effect on epitope reconstitution: concentrations up to 10 nM
Method: (§1) Cell-mediated killing was determined in vitro using a 4-h chromium release assay. 51Cr-labeled target cells were plated at 2×10^3 cells/well in triplicate on 96-well V-bottom plates (Costar, Cambridge, Mass.) with varying numbers of effector cells in a final volume of 250 microl. Wells containing either culture medium and target cells only or 1 M HCl and target cells served as background 51Cr release controls and total release controls, respectively. The plates were centrifuged at 100×g for 3 min and incubated at 37° C. in 5% CO2 for 4 h. The plates were again centrifuged, and 0.20 ml of medium from each well was removed for counting in a gamma counter. The cytotoxic index was calculated as: [formula] […] Effector cells were added in 100 microl assay medium to give an E:T ratio of 10:1, and were incubated at 37° C. The remainder of the assay is performed as in standard chromium release assays described above. Wells containing peptide and target cells but no CTL were used as controls to rule out toxicity of the peptides themselves. […] HLA-A2.1 molecules were immunoaffinity purified from detergent lysates of the human melanoma cell line DM6. The associated peptides were released by acid extraction, separated from HLA-A2.1 and antibody by filtration, and fractionated by multiple stages of HPLC. […] L. Slingluff Jr., et al, J. Immunol. (1993) […], 2955, by using a gradient of acetonitrile/0.085% trifluoroacetic acid (TFA) in 0.1% TFA with acetonitrile increasing from 0 to 9% (0-5 min), 9 to 36%(5-55min), 36 to 60% (55-62min) (v/v), collecting one-minute fractions. In FIG. 8B Fractions 2 and 3 from the separation shown in panel A were pooled and rechromatographed with a 55 minute gradient of 0 to 30% acetonitrile/0.1% heptafluorobutyric acid (HFBA) in 0.1% HFBA, collecting one-minute fractions. For both panels, peptide fractions were incubated for 2-3 h with 2×10^3 51Cr-labelled T2 cells in 150 ll assay media per well in 96-well plates. […]

[3] = system: melanoma specific CTL DM204-13; test: Reconstitution of melanoma-specific CTL epitope on peptide-pulsed 51Cr-labelled T2 cells, chromium release assay, DM204-13 CTL; conditions: for effect on epitope reconstitution: concentrations up to 10 nM
Method: as §1

[4] = T2 cells, synthetic peptide with equimolar Leu/Ile at X, read-out: half-maximal reconstitution of the epitope

Substance | effect on epitope reconstitution [2] | effect on epitope reconstitution [3] | activity in reconstituting recognition by CTL lines from 3 additional patients [1] | further results
Try Met Asn Gly Thr Met Ser Gln Val (YMNGTMSQV) [SEQ ID NO 96, originates from tyrosinase, reference compound] | – | – | – | CTL lines that recognized cells incubated with the peptide ([1]; 4 CTL lines tested): None of 4
Tyr Xaa Glu Pro Gly Pro Val Thr Ala [Peptide 946] | – | – | – | EC50 [2, 4]: 1 to 10 pM; EC50 [3, 4]: 1 to 10 pM; EC50 ([1]; dose response curves for two of the 3 additional CTL lines, read-out: half-maximal lysis): 1 to 10 pM; patients / CTL lines whose T-cells recognized the HLA-A2.1-associated peptide ([1]; five melanoma-specific CTL lines from five patients): 5 out of 5 and all five lines recognize; reconstitution of recognition by CTL lines from 3 additional patients ([1]; peptide at 0.1-1 nM, T2 cells, FIG. 12): reconstituted recognition
Ala Xaa Tyr Asp Ala Thr Tyr Glu Thr [Peptide 1046] | no effect | no effect | neither 864 nor 1046 had any detectable activity | –
SMAPGNTSV [Peptide 864] | no effect | no effect | neither 864 nor 1046 had any detectable activity | –

From US6660276B1, “Peptides recognized by melanoma-specific cytotoxic lymphocytes, and uses therefor” (The University of Virginia Patent Foundation, priority 1994, dated 2003)
